Some test systems named below: SK-MEL-5; OVCAR-8; NCI-H522; XF498; CAKI-1; M14; UACC-62; HT-29; HCT-15; SW-620; KM12; ACHN; OVCAR-4; KM-20L2; SF-268; RPMI-8226; SK-OV-3; LOX IMVI; HCC 2998; EKVX.
Holding throughout (experiment): NCI tumour cell line growth inhibition, 48 h

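Growth conditions: 96-well plates. Treatment: test compound, 48 hours, 5 concentrations. Analysis: linear interpolation between bracketing concentrations; unreached endpoints set to highest concentration. Here, GI50 denotes the concentration required for 50% inhibition of growth.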 Active and inactive are the calls of the source. Rule as the data show it: active = GI50 up to about 1.1 µM and inactive = higher. Bounds are passed on as bounds.

Take `CCOC(=O)Nc1nc2cc(Cn3cccc3)ccc2[nH]1`: the GI50 with SK-MEL-5 was 0.51 µM (active); in the assay on OVCAR-8, 2.39 µM (inactive); in the assay on NCI-H522, 0.533 µM (active); in the assay with XF498, 3.5 µM (inactive); with CAKI-1, 0.873 µM (active); in the assay on M14, 1.65 µM (inactive). In addition, the GI50 was 0.828 µM (active) in the assay with UACC-62; 0.65 µM (active) with HT-29; 0.986 µM in the assay with HCT-15; 0.564 µM (active) with SW-620; 0.853 µM (active) with KM12; 5.78 µM (inactive) with ACHN. The GI50 in the assay with OVCAR-4 was 16.2 µM (inactive); with KM-20L2, 3.25 µM (inactive); in the assay on SF-268 it was 8.73 µM (inactive); in the assay on RPMI-8226, 0.925 µM (active); in the assay on SK-OV-3, 1.5 µM (inactive); in the assay on LOX IMVI it was 2.55 µM (inactive). In addition, the GI50 is 2.47 µM (inactive) in the assay with HCC 2998 and 27.7 µM (inactive) with EKVX.

Turning to `CCCCN(CCCC)CC(C(C)=O)C(c1ccccc1)c1c(O)c2ccccc2oc1=O` (stereo not given), the GI50 in the assay on SK-MEL-5, in the assay on OVCAR-8, in the assay on NCI-H522, in the assay with XF498, with CAKI-1 and in the assay on M14 was > 100 µM (inactive) each time. The GI50 in the assay on UACC-62 is > 100 µM (inactive); with HT-29, > 100 µM (inactive); in the assay on HCT-15, above 100 µM; in the assay with SW-620, > 100 µM (inactive); in the assay on KM12 it was > 100 µM (inactive); with ACHN, > 100 µM (inactive). Also, the GI50 in the assay on OVCAR-4, with KM-20L2, in the assay with SF-268, in the assay with RPMI-8226, in the assay on SK-OV-3 and with LOX IMVI was > 100 µM (inactive) each time. For the same molecule, the GI50 with HCC 2998 and with EKVX was > 100 µM (inactive) throughout.

Take `CC(C)[C@@H](COC(C)(C)C)/N=C/N1CCc2c([nH]c3ccccc23)C1`: the GI50 was > 100 µM (inactive) with SK-MEL-5; > 100 µM (inactive) with OVCAR-8; > 100 µM (inactive) in the assay with NCI-H522; 36.1 µM (inactive) in the assay on XF498; > 100 µM (inactive) with M14; > 100 µM (inactive) with UACC-62. In addition, the GI50 was > 100 µM (inactive) in the assay on HT-29; above 100 µM with HCT-15; > 100 µM (inactive) in the assay with SW-620; > 100 µM (inactive) in the assay with KM12; > 100 µM (inactive) in the assay on ACHN; > 100 µM (inactive) in the assay on OVCAR-4. Further, the GI50 was > 100 µM (inactive) with KM-20L2; > 100 µM (inactive) in the assay with SF-268; > 100 µM (inactive) with RPMI-8226; > 100 µM (inactive) in the assay on SK-OV-3; > 100 µM (inactive) in the assay with LOX IMVI; 80 µM (inactive) in the assay on HCC 2998. In addition, the GI50 in the assay on EKVX was > 100 µM (inactive).

Regarding `CN(C)c1ccc(-c2nc(N)nc3c2CCCC3)cc1`, the GI50 in the assay on SK-MEL-5 is 34.7 µM (inactive); in the assay on OVCAR-8, 74.5 µM (inactive); in the assay on NCI-H522 it was 25.2 µM (inactive); with XF498, 19.4 µM (inactive); in the assay with CAKI-1 it was 52.1 µM (inactive); in the assay with M14 it was 68.1 µM (inactive). Also, the GI50 in the assay with UACC-62 was 44.7 µM (inactive); with SW-620 it was > 100 µM (inactive); in the assay with KM12, 54 µM (inactive); in the assay on ACHN it was 26.4 µM (inactive); with KM-20L2, 57.8 µM (inactive); in the assay on SF-268 it was 47.2 µM (inactive). Also, the GI50 in the assay with RPMI-8226 is 30 µM (inactive); with SK-OV-3, > 100 µM (inactive); in the assay on LOX IMVI it was 31.3 µM (inactive); in the assay with HCC 2998, 80 µM (inactive); in the assay on EKVX, 28.4 µM (inactive).

As to `Cc1cc(NCCCCCCNc2cc(C)nc3ccc(Cl)cc23)c2cc(Cl)ccc2n1`, the GI50 was 18.3 µM (inactive) with SK-MEL-5; 18.5 µM (inactive) in the assay with OVCAR-8; 17 µM (inactive) in the assay on NCI-H522; 18.1 µM (inactive) in the assay with XF498; 33 µM (inactive) in the assay with CAKI-1; > 100 µM (inactive) with M14. Besides, the GI50 is 19.5 µM (inactive) with UACC-62; 15.2 µM (inactive) in the assay with HT-29; 18 µM with HCT-15; 17.2 µM (inactive) in the assay on KM12; 33 µM (inactive) in the assay on ACHN; 20 µM (inactive) in the assay with OVCAR-4. Besides, the GI50 with KM-20L2 is 15.8 µM (inactive); in the assay with SF-268 it was 14.7 µM (inactive); with RPMI-8226, 47.4 µM (inactive); in the assay on SK-OV-3, > 100 µM (inactive); in the assay with LOX IMVI, 14.9 µM (inactive); in the assay with HCC 2998, 16.4 µM (inactive). The GI50 in the assay with EKVX was 15.8 µM (inactive).

Turning to `O=C1CCC(=O)c2sccc2N1`, the GI50 in the assay on SK-MEL-5, with OVCAR-8, in the assay with NCI-H522, in the assay on XF498, in the assay on CAKI-1 and with M14 was > 100 µM (inactive) throughout. In addition, the GI50 in the assay on HT-29 was > 100 µM (inactive); in the assay on HCT-15, above 100 µM; in the assay with SW-620, > 100 µM (inactive); in the assay with KM12, > 100 µM (inactive); with ACHN, > 100 µM (inactive); in the assay on OVCAR-4, > 100 µM (inactive). Moreover, the GI50 in the assay with KM-20L2, with SF-268, in the assay with RPMI-8226, in the assay with SK-OV-3, in the assay on LOX IMVI and in the assay on HCC 2998 was > 100 µM (inactive) throughout. Further, the GI50 in the assay with EKVX was > 100 µM (inactive).

For the molecule `CCOc1ccc(NC(=O)C2=C(C)NC(C)=C(C(=O)Nc3ccc(OCC)cc3)C2c2ccccc2)cc1`, the GI50 in the assay on SK-MEL-5 is 74.3 µM (inactive); in the assay on OVCAR-8 it was > 100 µM (inactive); in the assay with NCI-H522, 38.3 µM (inactive); in the assay on XF498 it was > 100 µM (inactive); in the assay with CAKI-1, > 100 µM (inactive); in the assay on M14 it was > 100 µM (inactive). Also, the GI50 in the assay on HT-29 is > 100 µM (inactive); with SW-620 it was > 100 µM (inactive); with KM12, 41.7 µM (inactive); in the assay on ACHN it was 74.6 µM (inactive); in the assay with OVCAR-4, > 100 µM (inactive); in the assay on KM-20L2, 67 µM (inactive). The GI50 is 98.6 µM (inactive) with SF-268; 49.9 µM (inactive) in the assay on RPMI-8226; > 100 µM (inactive) in the assay on SK-OV-3; > 100 µM (inactive) with LOX IMVI; > 100 µM (inactive) in the assay on HCC 2998; > 100 µM (inactive) with EKVX.

As to `O=C1C(Br)=C[C@H]2C3C=CC(Br)(C3=O)[C@@H]12` (stereo not given in full), the GI50 with SK-MEL-5 was 14 µM (inactive); in the assay with OVCAR-8, 12.5 µM (inactive); in the assay on NCI-H522, 5.85 µM (inactive); with XF498, 17.5 µM (inactive); with CAKI-1 it was 9.25 µM (inactive); in the assay with M14, 9.33 µM (inactive). Further, the GI50 in the assay with UACC-62 is 3.82 µM (inactive); in the assay on HT-29, 10.5 µM (inactive); with HCT-15, 12.2 µM; with SW-620, 9.18 µM (inactive); with KM12, 11.9 µM (inactive); with ACHN it was 14.6 µM (inactive). Further, the GI50 with OVCAR-4 is 15.7 µM (inactive); in the assay on KM-20L2, 4.84 µM (inactive); in the assay with SF-268, 12.9 µM (inactive); with RPMI-8226, 3.05 µM (inactive); in the assay with SK-OV-3, 7.69 µM (inactive); with HCC 2998, 13.3 µM (inactive). Besides, the GI50 in the assay on EKVX was 15.4 µM (inactive).

In the case of `CCCn1c(SCC)c2cc3cc4ccccc4cc3cc2c1-c1nc(F)nc(F)n1`, the GI50 in the assay with SK-MEL-5, in the assay on OVCAR-8, in the assay with NCI-H522, in the assay with XF498, in the assay on CAKI-1 and in the assay with M14 was > 100 µM (inactive) each time. For the same molecule, the GI50 in the assay with HT-29 was > 100 µM (inactive); in the assay on HCT-15, above 100 µM; in the assay with SW-620, > 100 µM (inactive); with KM12 it was > 100 µM (inactive); in the assay with ACHN it was > 100 µM (inactive); with OVCAR-4, > 100 µM (inactive). In addition, the GI50 in the assay with KM-20L2, with SF-268, with RPMI-8226, in the assay with SK-OV-3, with LOX IMVI and in the assay on HCC 2998 was > 100 µM (inactive) each time. Besides, in the assay with EKVX, the GI50 is > 100 µM (inactive).

In the case of `CCCc1c(C(=O)OCC)[nH]c(C(=O)CCC(=O)c2[nH]c(C(=O)OCC)c(CCC)c2C(=O)OCC)c1C(=O)OCC`, the GI50 is > 100 µM (inactive) in the assay with SK-MEL-5; > 100 µM (inactive) in the assay on OVCAR-8; > 100 µM (inactive) with NCI-H522; 54.3 µM (inactive) in the assay on XF498; > 100 µM (inactive) in the assay on CAKI-1; > 100 µM (inactive) in the assay with M14. Moreover, the GI50 in the assay on UACC-62 is > 100 µM (inactive); in the assay on HT-29 it was > 100 µM (inactive); with HCT-15, above 100 µM; with SW-620, > 100 µM (inactive); in the assay on KM12, > 100 µM (inactive); in the assay with ACHN, > 100 µM (inactive). The GI50 was 48.3 µM (inactive) in the assay with OVCAR-4; > 100 µM (inactive) in the assay with KM-20L2; > 100 µM (inactive) in the assay on SF-268; > 100 µM (inactive) in the assay with RPMI-8226; > 100 µM (inactive) with SK-OV-3; > 100 µM (inactive) with LOX IMVI. Also, the GI50 in the assay on HCC 2998 and in the assay with EKVX was > 100 µM (inactive) throughout.

Source of the values: ChEMBL document CHEMBL1201862, “PubChem BioAssay data set” (2004).
